In the supplement of paper PMC10307832:

Experiments:
Assay in all cases: relative viability (nuclei count vs DMSO), 5 days (fraction); higher = more cells survive
Carboplatin + AZD7762 = compound: C1CC(C1)(C(=O)O)C(=O)O.[NH2-].[NH2-].[Pt+2] [Carboplatin] + NC(=O)Nc1cc(-c2cccc(F)c2)sc1C(=O)N[C@H]1CCCNC1 [AZD7762] (partner 0.2 µM)
Summary of the method: (§1)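 Nuclei were stained with Hoechst during a one-step fixation (final 0.05% Triton X-100, 1% formaldehyde, 1 ug/ml Hoechst) carried out 5 days after dosing, then counted on 4× images. The cells, lung cancer lines in 1536-well plates, had been dosed by pin tool the day after seeding with one drug alone or a fixed anchor-drug dose plus five library-drug doses (not always all listed) in √10 steps. Relative viability is the nuclei count in treated wells divided by that in vehicle wells, and each value is the median of duplicate plates.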

MLN4924 + Pictilisib = compound: NS(=O)(=O)OC[C@@H]1C[C@@H](n2ccc3c(N[C@H]4CCc5ccccc54)ncnc32)C[C@@H]1O [MLN4924] + CS(=O)(=O)N1CCN(Cc2cc3nc(-c4cccc5[nH]ncc45)nc(N4CCOCC4)c3s2)CC1 [Pictilisib] (partner 1 µM)
Summary of the method: as §1

Carboplatin + Lapatinib = compound: C1CC(C1)(C(=O)O)C(=O)O.[NH2-].[NH2-].[Pt+2] [Carboplatin] + CS(=O)(=O)CCNCc1ccc(-c2ccc3ncnc(Nc4ccc(OCc5cccc(F)c5)c(Cl)c4)c3c2)o1 [Lapatinib] (partner 2 µM)
Summary of the method: as §1

Carboplatin + Luminespib = compound: C1CC(C1)(C(=O)O)C(=O)O.[NH2-].[NH2-].[Pt+2] [Carboplatin] + CCNC(=O)c1noc(-c2cc(C(C)C)c(O)cc2O)c1-c1ccc(CN2CCOCC2)cc1 [Luminespib] (partner 0.01 µM)
Summary of the method: as §1

Cell Line	relative viability (Carboplatin + AZD7762; first compound 0.08 µM)	relative viability (Carboplatin + AZD7762; first compound 0.253 µM)	relative viability (Carboplatin + AZD7762; first compound 0.8 µM)	relative viability (Carboplatin + AZD7762; first compound 2.53 µM)	relative viability (Carboplatin + AZD7762; first compound 8 µM)	relative viability (MLN4924 + Pictilisib; first compound 0.04 µM)	relative viability (MLN4924 + Pictilisib; first compound 0.1265 µM)	relative viability (MLN4924 + Pictilisib; first compound 0.4 µM)	relative viability (MLN4924 + Pictilisib; first compound 1.265 µM)	relative viability (MLN4924 + Pictilisib; first compound 4 µM)	relative viability (Carboplatin + Lapatinib; first compound 0.08 µM)	relative viability (Carboplatin + Lapatinib; first compound 0.253 µM)	relative viability (Carboplatin + Lapatinib; first compound 0.8 µM)	relative viability (Carboplatin + Lapatinib; first compound 2.53 µM)	relative viability (Carboplatin + Lapatinib; first compound 8 µM)	relative viability (Carboplatin + Luminespib; first compound 0.08 µM)	relative viability (Carboplatin + Luminespib; first compound 0.253 µM)	relative viability (Carboplatin + Luminespib; first compound 0.8 µM)	relative viability (Carboplatin + Luminespib; first compound 2.53 µM)	relative viability (Carboplatin + Luminespib; first compound 8 µM)
H3255	1.08	0.917	0.852	0.832	0.734	0.453	0.382	0.317	0.203	0.217	0.276	0.248	0.269	0.257	0.236	1.02	1.03	0.964	0.772	0.704
EMC-BAC-2	1.15	0.993	1.11	1.07	0.973	0.242	0.569	0.213	0.155	0.192	0.883	0.886	0.924	0.837	0.88	1.22	1.15	1.15	1	0.751
NCI-H1666	0.973	0.916	0.811	0.779	0.831	0.404	0.478	0.247	0.159	0.156	0.662	0.665	0.578	0.498	0.468	1.02	1.02	0.814	0.824	0.702
LCLC-97TM1	0.221	0.336	0.367	0.163	0.228	0.159	0.224	0.132	0.129	0.104	0.891		1.02	1.08	1	0.726	0.667	0.65	0.732	0.722
NCI-H2405	0.832	0.757	0.757	0.646	0.454	0.452	0.73	0.505	0.246	0.254	1.31	1.06	1.12	1.15	0.904	0.813	0.838	0.591	0.606	0.724
NCI-H1915	0.64	0.706	0.679	0.647	0.39	0.773	0.81	0.59	0.215	0.201	0.906	1.03	0.976	0.999	0.577	0.867	0.876	0.631	0.613	0.328
NCI-H650	0.985	0.948	0.778	0.863	0.721	0.79	0.508	0.335	0.208	0.214	1.06	0.852	0.876	0.976	0.521	0.757	0.904	0.655	0.548	0.327
NCI-H596	1.25	1.18	1.09	0.885	0.693	0.419	0.448	0.273	0.379	0.349	1.21	1	1.07	0.943	0.886	1.02	1	0.4	0.342	0.746
HCC-44	1.06	1.03	1.02	1.01	0.992	0.641	0.474	0.0983	0.0904	0.127	1.03	1.01	0.984	0.965	0.968	1.16	0.755	0.406	0.305	0.31
NCI-H2087	1.38	1.48	1.2	1.12	0.939	0.972	0.75	0.342	0.118	0.133	1.22	0.968	0.86	0.969	0.833	0.158	0.168	0.121	0.138	0.165
RERF-LC-KJ	1.14		1.04	0.995	0.828	0.532	0.315	0.154	0.139	0.192	0.854	0.838	0.822	0.841	0.726	1.24	1.18	1.13	0.918	0.5
NCI-H2126	0.972	1.06	1.05	1.03	0.931	0.497	0.457	0.315	0.267	0.264	0.737	0.758	0.796	0.8	0.721	0.862	1.07	0.992	0.931	0.695
HARA	0.279	0.344	0.265	0.279	0.383	0.552	0.388	0.184	0.0759	0.0734	0.816	0.842	0.841	0.654	0.695	0.847	0.756	0.701	0.573	0.752
EPLC-272H	0.308	0.218	0.309	0.208	0.208	0.119	0.246	0.0811	0.135	0.135	1.01	1.14	0.961	0.981	0.901	0.308	0.297	0.266	0.387	0.226
NCI-H727	0.579	0.461	0.628	0.685	0.639	0.4	0.311	0.268	0.291	0.244	0.998	0.782	0.85	0.745	0.448	0.377	0.3	0.432	0.24	0.312
NCI-H2170	0.944	0.934	0.995	0.724	0.385	0.36	0.37	0.217	0.135	0.171	0.273	0.279	0.269	0.257	0.262	0.911	0.783	0.47	0.351	0.283
